The test system of this experiment is secretion of endogenous insulin-degrading enzyme (IDE). Description: Secretion assay: effect of lovastatin on IDE secretion in COS-7 cells transfected with GFAP-ΔEx4 (Western immunoblot, ratio of IDE in medium to IDE in lysates). It is filed as cell-based, monkey. To be noted: Primates, 5 µM lovastatin for 15 hours, 36 hours post transfection, versus DMSO vehicle, read-out: increase of IDE secretion (ratio of IDE in the medium to IDE in the lysates) compared to GFAP-ΔEx4. As for the experimental part: COS-7 cells, a fibroblast-like cell line from monkey kidney tissue (ATCC, USA), were cultured in Dulbecco's Modified Eagle Medium (DMEM) (Life Technologies) containing 10% Fetal calf serum (FCS) (Life Technologies) and 1% Penicillin/Streptomycin (PS) (Life Technologies) (DMEM +/+) and splitted into new dishes (Coming). For all experiments cells were counted by using a Neubauer counting chamber. To estimate cell number (cells/ml), the average number from four big squares of the Neubauer chamber was multiplied by 10'000 and the cell suspension was diluted to the desired cell concentration. […]
The effect of statins on the secretion of IDE disturbed by Alexander disease-causing mutation in the 2A rod region of GFAP was determined by cell transfection and pharmacological treatment in COS-7 cells.
Cells were seeded in 6 well plates day before the transfection to a 50% confluence in DMEM medium supplemented with 10% FCS/1% PS. […] Proteins were separated by sodium dodecyl sulfate-polyacrylamide gel electrophoresis (SDS-PAGE), transferred to nitrocellulose membranes (Whatman), and detected by Western immunoblotting using enhanced chemiluminescence detection (ChemiDoc XRS, Bio-Rad). Signals were quantified with Quantity One Software (Bio-Rad).

Structures are written as SMILES.

Take `CC[C@H](C)C(=O)O[C@H]1C[C@@H](C)C=C2C=C[C@H](C)[C@H](CC[C@@H]3C[C@@H](O)CC(=O)O3)[C@H]21` [lovastatin, [(1S,3R,7S,8S,8aR)-8-[2-[(2R,4R)-4-hydroxy-6-oxooxan-2-yl]ethyl]-3,7-dimethyl-1,2,3,7,8,8a-hexahydronaphthalen-1-yl] (2S)-2-methylbutanoate]: the activation at 5 µM is about 100%.

The values above are taken from EP2839831A1, “Modulators of the unconventional secretory pathway for use in the treatment of Alexander disease” (Rheinische Friedrich-Wilhelms-Universität Bonn, priority 2013, dated 2015).
